# Patent publication US20240158446A1, “CYCLIC COMPOUND HAVING SELECTIVE INHIBITORY ACTION ON KRAS OVER HRAS AND NRAS” (CHUGAI SEIYAKU KABUSHIKI KAISHA, priority 2021, published 2024)
# Where a SMILES comes first, the peptide text is derived from it. Bridges are numbered along the chain shown (N, C = ends). [ ]: non-standard residue; d: D form. The star is where a group is joined. hPhe(3-Cl-4-CF3) = N[C@@H](CCc1ccc(C(F)(F)F)c(Cl)c1)C(=O)O; NPrPhe(4-CF3) = CCCN[C@@H](Cc1ccc(C(F)(F)F)cc1)C(=O)O; Piperazinyl(4-(3-oxetanyl)) = C1OCC1N1CCN(*)CC1; NMeGly(cPent) = CN[C@H](C(=O)O)C1CCCC1; Piperidide(4-Me) = CC1CCN(*)CC1; NMeD = CN[C@@H](CC(=O)O)C(=O)O; NMeL = CN[C@@H](CC(C)C)C(=O)O; Oxazolidin(3-yl) = C1CN(*)CO1; Azetidin(1-yl) = C1CN(*)C1; Morpholide = C1CN(*)CCO1; NMeA = CN[C@@H](C)C(=O)O; Piperidide = C1CCN(*)CC1; Pyrrolidide = C1CCN(*)C1; Ac5c = NC1(C(=O)O)CCCC1; Aze = O=C(O)[C@@H]1CCN1; X24 = CC1(C)CCN(*)C1; Sar = CNCC(=O)O
# Experiments:
# [1] = molecular target: GDP-bound HRAS wild-type protein (Homo sapiens, UniProt P01112); test: Binding to HRAS by surface plasmon resonance (SPR), Single Cycle Kinetics; conditions: SPR, GDP-bound HRAS wild-type protein vs GDP-bound KRAS wild-type protein
# GDP-bound HRAS wild-type protein, sequence (P01112 whole entry): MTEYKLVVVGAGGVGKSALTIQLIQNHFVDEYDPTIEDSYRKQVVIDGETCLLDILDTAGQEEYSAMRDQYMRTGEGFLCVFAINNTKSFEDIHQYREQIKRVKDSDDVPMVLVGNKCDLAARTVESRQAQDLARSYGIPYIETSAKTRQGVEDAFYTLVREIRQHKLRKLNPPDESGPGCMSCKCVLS
# [2] = molecular target: GDP-bound NRAS wild-type protein (Homo sapiens, UniProt P01111); test: Binding to NRAS by surface plasmon resonance (SPR), Single Cycle Kinetics; conditions: SPR, GDP-bound NRAS wild-type protein vs GDP-bound KRAS wild-type protein
# GDP-bound NRAS wild-type protein, sequence (P01111 whole entry): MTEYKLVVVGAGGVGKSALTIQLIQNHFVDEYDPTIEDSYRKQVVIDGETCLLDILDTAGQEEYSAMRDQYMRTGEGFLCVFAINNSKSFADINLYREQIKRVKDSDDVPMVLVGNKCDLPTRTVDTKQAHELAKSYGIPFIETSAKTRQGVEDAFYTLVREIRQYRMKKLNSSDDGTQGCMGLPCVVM
# [3] = molecular target: GDP-bound KRAS wild-type protein (Homo sapiens, UniProt P01116); test: Binding to KRAS by surface plasmon resonance (SPR), Single Cycle Kinetics; conditions: SPR Single Cycle Kinetics, GDP-bound KRAS wild-type protein, 1:1 binding model; read-out: KRAS KD
# GDP-bound KRAS wild-type protein, sequence (P01116 whole entry): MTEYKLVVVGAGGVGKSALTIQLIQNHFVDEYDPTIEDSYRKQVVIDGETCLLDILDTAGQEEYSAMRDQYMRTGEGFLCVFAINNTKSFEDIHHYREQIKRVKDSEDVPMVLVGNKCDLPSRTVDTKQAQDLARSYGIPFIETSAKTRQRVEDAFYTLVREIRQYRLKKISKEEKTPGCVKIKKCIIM
SMILES,HRAS/KRAS (ratio of KD value for HRAS to KD value for KRAS) [1],NRAS/KRAS (ratio of KD value for NRAS to KD value for KRAS) [2],Kd [3]
CCCN1C(=O)[C@@H]2CCN2C(=O)CN(C)C(=O)[C@H]([C@@H](C)CC)NC(=O)[C@H](CC(C)C)N(C)C(=O)C[C@@H](C(=O)N2CCOCC2)N(C)C(=O)[C@H](C2CCCC2)N(C)C(=O)C2(CCCC2)NC(=O)[C@@H]2CCCN2C(=O)[C@H](CCc2ccc(C(F)(F)F)c(Cl)c2)NC(=O)CN(C)C(=O)[C@@H]1Cc1ccc(C(F)(F)F)cc1 [PP0156] ([NMeL]I[Sar][Aze][NPrPhe(4-CF3)][Sar][hPhe(3-Cl-4-CF3)]P[Ac5c][NMeGly(cPent)][NMeD]-Morpholide; lactam N-11),B (a compound having 3 or more and less than 10 is denoted as B),C (A compound having a KD ratio of 0.1 or more and less than 3 is denoted as C),120 pM
CCCN1C(=O)CN(C)C(=O)[C@@H]2CCCN2C(=O)[C@H]([C@@H](C)CC)NC(=O)[C@H](CC(C)C)N(C)C(=O)C[C@@H](C(=O)N2CCOCC2)N(C)C(=O)[C@H](C2CCCC2)N(C)C(=O)C2(CCCC2)NC(=O)[C@@H]2CCCN2C(=O)[C@H](CCc2ccc(C(F)(F)F)c(Cl)c2)NC(=O)CN(C)C(=O)[C@@H]1Cc1ccc(C(F)(F)F)cc1 [PP0165] ([NMeL]IP[Sar][NPrPhe(4-CF3)][Sar][hPhe(3-Cl-4-CF3)]P[Ac5c][NMeGly(cPent)][NMeD]-Morpholide; lactam N-11),B (a compound having 3 or more and less than 10 is denoted as B),B (a compound having 3 or more and less than 10 is denoted as B),2900 pM
CCCN1C(=O)CN(C)C(=O)CN(C)C(=O)[C@H]([C@@H](C)CC)NC(=O)[C@H](CC(C)C)N(C)C(=O)C[C@@H](C(=O)N(C)C)N(C)C(=O)[C@H](C2CCCC2)N(C)C(=O)C2(CCCC2)NC(=O)[C@@H]2CCCN2C(=O)[C@H](CCc2ccc(C(F)(F)F)c(Cl)c2)NC(=O)CN(C)C(=O)[C@@H]1Cc1ccc(C(F)(F)F)cc1 [PP0169] ([NMeL]I[Sar][Sar][NPrPhe(4-CF3)][Sar][hPhe(3-Cl-4-CF3)]P[Ac5c][NMeGly(cPent)][NMeD]-NMe2; lactam N-11),B (a compound having 3 or more and less than 10 is denoted as B),B (a compound having 3 or more and less than 10 is denoted as B),35 pM
CCCN1C(=O)CN(C)C(=O)CN(C)C(=O)[C@H]([C@@H](C)CC)NC(=O)[C@H](CC(C)C)N(C)C(=O)C[C@@H](C(=O)N2CCC2)N(C)C(=O)[C@H](C2CCCC2)N(C)C(=O)C2(CCCC2)NC(=O)[C@@H]2CCCN2C(=O)[C@H](CCc2ccc(C(F)(F)F)c(Cl)c2)NC(=O)CN(C)C(=O)[C@@H]1Cc1ccc(C(F)(F)F)cc1 [PP0172] ([NMeL]I[Sar][Sar][NPrPhe(4-CF3)][Sar][hPhe(3-Cl-4-CF3)]P[Ac5c][NMeGly(cPent)][NMeD]-{Azetidin(1-yl)}; lactam N-11),C (A compound having a KD ratio of 0.1 or more and less than 3 is denoted as C),B (a compound having 3 or more and less than 10 is denoted as B),130 pM
CCCN1C(=O)CN(C)C(=O)CN(C)C(=O)[C@H]([C@@H](C)CC)NC(=O)[C@H](CC(C)C)N(C)C(=O)C[C@@H](C(=O)N2CCN(C3COC3)CC2)N(C)C(=O)[C@H](C2CCCC2)N(C)C(=O)C2(CCCC2)NC(=O)[C@@H]2CCCN2C(=O)[C@H](CCc2ccc(C(F)(F)F)c(Cl)c2)NC(=O)CN(C)C(=O)[C@@H]1Cc1ccc(C(F)(F)F)cc1 [PP0175] ([NMeL]I[Sar][Sar][NPrPhe(4-CF3)][Sar][hPhe(3-Cl-4-CF3)]P[Ac5c][NMeGly(cPent)][NMeD]-{Piperazinyl(4-(3-oxetanyl))}; lactam N-11),B (a compound having 3 or more and less than 10 is denoted as B),B (a compound having 3 or more and less than 10 is denoted as B),350 pM
CCCN1C(=O)CN(C)C(=O)CN(C)C(=O)[C@H]([C@@H](C)CC)NC(=O)[C@H](CC(C)C)N(C)C(=O)C[C@@H](C(=O)N2CCC(C)CC2)N(C)C(=O)[C@H](C2CCCC2)N(C)C(=O)C2(CCCC2)NC(=O)[C@@H]2CCCN2C(=O)[C@H](CCc2ccc(C(F)(F)F)c(Cl)c2)NC(=O)CN(C)C(=O)[C@@H]1Cc1ccc(C(F)(F)F)cc1 [PP0176] ([NMeL]I[Sar][Sar][NPrPhe(4-CF3)][Sar][hPhe(3-Cl-4-CF3)]P[Ac5c][NMeGly(cPent)][NMeD]-{Piperidide(4-Me)}; lactam N-11),C (A compound having a KD ratio of 0.1 or more and less than 3 is denoted as C),B (a compound having 3 or more and less than 10 is denoted as B),550 pM
CCCN1C(=O)CN(C)C(=O)CN(C)C(=O)[C@H]([C@@H](C)CC)NC(=O)[C@H](CC(C)C)N(C)C(=O)C[C@@H](C(=O)N2CCC(C)(C)C2)N(C)C(=O)[C@H](C2CCCC2)N(C)C(=O)C2(CCCC2)NC(=O)[C@@H]2CCCN2C(=O)[C@H](CCc2ccc(C(F)(F)F)c(Cl)c2)NC(=O)CN(C)C(=O)[C@@H]1Cc1ccc(C(F)(F)F)cc1 [PP0177] ([NMeL]I[Sar][Sar][NPrPhe(4-CF3)][Sar][hPhe(3-Cl-4-CF3)]P[Ac5c][NMeGly(cPent)][NMeD]-X24; lactam N-11),C (A compound having a KD ratio of 0.1 or more and less than 3 is denoted as C),B (a compound having 3 or more and less than 10 is denoted as B),550 pM
CCCN1C(=O)[C@@H]2CCN2C(=O)[C@H](C)N(C)C(=O)[C@H]([C@@H](C)CC)NC(=O)[C@H](CC(C)C)N(C)C(=O)C[C@@H](C(=O)N(C)C)N(C)C(=O)[C@H](C2CCCC2)N(C)C(=O)C2(CCCC2)NC(=O)[C@@H]2CCCN2C(=O)[C@H](CCc2ccc(C(F)(F)F)c(Cl)c2)NC(=O)CN(C)C(=O)[C@@H]1Cc1ccc(C(F)(F)F)cc1 [PP0178] ([NMeL]I[NMeA][Aze][NPrPhe(4-CF3)][Sar][hPhe(3-Cl-4-CF3)]P[Ac5c][NMeGly(cPent)][NMeD]-NMe2; lactam N-11),B (a compound having 3 or more and less than 10 is denoted as B),C (A compound having a KD ratio of 0.1 or more and less than 3 is denoted as C),73 pM
CCCN1C(=O)[C@@H]2CCN2C(=O)[C@H](C)N(C)C(=O)[C@H]([C@@H](C)CC)NC(=O)[C@H](CC(C)C)N(C)C(=O)C[C@@H](C(=O)N2CCCC2)N(C)C(=O)[C@H](C2CCCC2)N(C)C(=O)C2(CCCC2)NC(=O)[C@@H]2CCCN2C(=O)[C@H](CCc2ccc(C(F)(F)F)c(Cl)c2)NC(=O)CN(C)C(=O)[C@@H]1Cc1ccc(C(F)(F)F)cc1 [PP0179] ([NMeL]I[NMeA][Aze][NPrPhe(4-CF3)][Sar][hPhe(3-Cl-4-CF3)]P[Ac5c][NMeGly(cPent)][NMeD]-Pyrrolidide; lactam N-11),B (a compound having 3 or more and less than 10 is denoted as B),C (A compound having a KD ratio of 0.1 or more and less than 3 is denoted as C),110 pM
CCCN1C(=O)[C@@H]2CCN2C(=O)[C@H](C)N(C)C(=O)[C@H]([C@@H](C)CC)NC(=O)[C@H](CC(C)C)N(C)C(=O)C[C@@H](C(=O)N2CCCCC2)N(C)C(=O)[C@H](C2CCCC2)N(C)C(=O)C2(CCCC2)NC(=O)[C@@H]2CCCN2C(=O)[C@H](CCc2ccc(C(F)(F)F)c(Cl)c2)NC(=O)CN(C)C(=O)[C@@H]1Cc1ccc(C(F)(F)F)cc1 [PP0180] ([NMeL]I[NMeA][Aze][NPrPhe(4-CF3)][Sar][hPhe(3-Cl-4-CF3)]P[Ac5c][NMeGly(cPent)][NMeD]-Piperidide; lactam N-11),C (A compound having a KD ratio of 0.1 or more and less than 3 is denoted as C),C (A compound having a KD ratio of 0.1 or more and less than 3 is denoted as C),720 pM
CCCN1C(=O)[C@@H]2CCN2C(=O)[C@H](C)N(C)C(=O)[C@H]([C@@H](C)CC)NC(=O)[C@H](CC(C)C)N(C)C(=O)C[C@@H](C(=O)N2CCC2)N(C)C(=O)[C@H](C2CCCC2)N(C)C(=O)C2(CCCC2)NC(=O)[C@@H]2CCCN2C(=O)[C@H](CCc2ccc(C(F)(F)F)c(Cl)c2)NC(=O)CN(C)C(=O)[C@@H]1Cc1ccc(C(F)(F)F)cc1 [PP0181] ([NMeL]I[NMeA][Aze][NPrPhe(4-CF3)][Sar][hPhe(3-Cl-4-CF3)]P[Ac5c][NMeGly(cPent)][NMeD]-{Azetidin(1-yl)}; lactam N-11),B (a compound having 3 or more and less than 10 is denoted as B),C (A compound having a KD ratio of 0.1 or more and less than 3 is denoted as C),81 pM
CCCN1C(=O)[C@@H]2CCN2C(=O)[C@H](C)N(C)C(=O)[C@H]([C@@H](C)CC)NC(=O)[C@H](CC(C)C)N(C)C(=O)C[C@@H](C(=O)N2CCOC2)N(C)C(=O)[C@H](C2CCCC2)N(C)C(=O)C2(CCCC2)NC(=O)[C@@H]2CCCN2C(=O)[C@H](CCc2ccc(C(F)(F)F)c(Cl)c2)NC(=O)CN(C)C(=O)[C@@H]1Cc1ccc(C(F)(F)F)cc1 [PP0183] ([NMeL]I[NMeA][Aze][NPrPhe(4-CF3)][Sar][hPhe(3-Cl-4-CF3)]P[Ac5c][NMeGly(cPent)][NMeD]-{Oxazolidin(3-yl)}; lactam N-11),B (a compound having 3 or more and less than 10 is denoted as B),C (A compound having a KD ratio of 0.1 or more and less than 3 is denoted as C),170 pM
